Assay results published in patent US20160022606A1, “NOVEL THERAPY FOR PROSTATE CARCINOMA” (PELLFICURE PHARMACEUTICALS INC., priority 2013, published 2016).

What was measured:
TRAMP-C2 cells = test: Incidence of MI, AP and PY in TRAMP-C2 cells (H2B-GFP) by fluorescent microscopy; type: cell-based, mouse; settings: for AP (×10^−3) / MI (×10^−3) / PY (×10^−3): RPMI without phenol red, no FCS
Description: At each time point, two peripheral and two central ×20 fields of the tumor are captured with a FITC filter and an integrated frame grabber. Only mitotic figures in metaphase-telophase (MI) are included in the mitotic indices to exclude the potential artifact of nuclear membrane distortion. Apoptotic/Pyknotic nuclei are defined as H2B-GFP labeled nuclei with a cross sectional area <30 μm^2. Nuclear karyorrhexis (NK), easily distinguishable by the vesicular nuclear condensation and brightness of H2BGFP, is included within this apoptotic indices.
For example, TRAMP-C2 cells (transfected with H2B-GFP) were plated at 2.08×10^4 cells/cm^2 density in complete RPMI medium (10% of heat-inactivated FCS, 10^−8 M DHT, 5 μg/ml insulin, 6 ng/ml EGF, 100 U/ml penicillin, 100 μg/ml streptomycin, 2 mM L-glutamine) and grown at 37° C. in a humidified 5% CO2 atmosphere overnight. The cells were 3× washed with PBS and medium was replaced for RPMI medium without phenol red and without FCS. One set of cells had no DHT, the other set was incubated in the presence of DHT 10^−8 M overnight. 24 h later, the medium was replaced for medium (RPMI without phenol red, no FCS) containing increasing concentrations of plumbagin in the range 0-1 μM with DHT 10^−8 M or without DHT. 24 h later the incidence of MI, AP, and PY was evaluated by fluorescent microscopy.

[1] = type: physicochemical
Experimental: Plumbagin was formulated as an inclusion complex with heptakis(2,6-di-O-methyl)-beta-cyclodextrin. In brief, a super-saturated solution of plumbagin in 0.1M of heptakis(2,6-di-O-methyl)-beta-cyclodextrin was stirred for 72 hours at 25+/−0.5° C. Then the mixture was filtered through a 0.2 µm nylon membrane filter. The concentration of solubilized plumbagin has been determined by UV-VIS spectroscopy (Amax(263 nm and 417 nm)).

fibrosarcomas = settings: in vivo; cited from earlier work
[2] = tested on: P388 lymphocytic leukemia; settings: in vivo; cited from earlier work
hepatoma = settings: in vivo; cited from earlier work
[3] = tested on: hormone-refractory prostate cancer; settings: Aziz et al., Cancer Res. 2008; cited from earlier work
tubulin [4] = settings: Acharya et al., Biochemistry 2008; cited from earlier work
tubulin [5] = settings: Acharya et al., Biochemistry 2008; cited from earlier work; remark: listed apart in the source
prostate carcinoma cells = settings: plumbagin 5 umol/L; cited from earlier work

## C[C@]12CCC(=O)C[C@@H]1CC[C@@H]1[C@@H]2CC[C@]2(C)[C@@H](O)CC[C@@H]12 [DHT, dihydrotestosterone, reference compound]
TRAMP-C2 cells; DHT 0.01 μM
  AP (×10^−3): 13.8 ×10^−3
  MI (×10^−3): 4.911 ×10^−3
  PY (×10^−3): 0.8681 ×10^−3

## CC1=CC(=O)c2c(O)cccc2C1=O [Plumbagin, 5-hydroxy-2-methylnaphthalene-1,4-dione]
TRAMP-C2 cells; 0.6 μM of plumbagin vs DHT at 10^−8 M
  induction of cell cycle entry / mitosis compared with DHT: much more effectively than DHT at 10^−8 M
TRAMP-C2 cells; plumbagin 0.4 μM, 24 h
  AP (×10^−3): 8.852 ×10^−3
  MI (×10^−3): 8.89 ×10^−3
  PY (×10^−3): 20.495 ×10^−3
TRAMP-C2 cells; plumbagin 0.6 μM, 24 h
  AP (×10^−3): 9.371 ×10^−3
  MI (×10^−3): 14.81 ×10^−3
  PY (×10^−3): 16.76 ×10^−3
TRAMP-C2 cells; plumbagin 0.8 μM, 24 h
  AP (×10^−3): 16.11 ×10^−3
  MI (×10^−3): 12.7 ×10^−3
  PY (×10^−3): 16.73 ×10^−3
TRAMP-C2 cells; plumbagin 1 μM, 24 h
  AP (×10^−3): 14.22 ×10^−3
  MI (×10^−3): 7.285 ×10^−3
  PY (×10^−3): 8.244 ×10^−3
[1]
  K1:1 (phase-solubility diagram analysis): 485 M⁻¹
fibrosarcomas
  ED50 anticancer effect toward fibrosarcomas: 0.75 mg/kg body weight
[2]
  ED50 anticancer effect toward P388 lymphocytic leukemia: 4 mg/kg body weight
hepatoma
  effect on hepatoma: induced regression of hepatoma
[3]
  effect on hormone-refractory prostate cancer: inhibited growth and invasion of hormone-refractory prostate cancer
Tubulin [4]
  tubulin binding site: recognizes the colchicine binding site of tubulin
Tubulin [5]
  in vitro tubulin polymerization: inhibits in vitro tubulin polymerization
Prostate carcinoma cells
  expression of PKCq, PI3K, AKT, activation of AP-1, NF-κB, Stat3: inhibit expression of multiple molecular targets
